The results in this text go back to ChEMBL document CHEMBL5729117, “Heteroaryl Rheb inhibitors and uses thereof” (2022).

The target in this experiment is GTP-binding protein Rheb (Homo sapiens, UniProt Q15382). The experiment in a line: In Vitro Kinase Assay: For the Rheb-dependent in vitro kinase assay, HA-GST-Rheb was first loaded with GTP-γ-S (Millipore #20-176) by incubating 600 ng/μL Rheb with 10 mM EDTA and 0.4 mM GTP-γ-S at 30° C. for 10 minutes. MgCl2 was added to a final concentration of 20 mM to stop the reaction. This mixture was used at 20× in the kinase assay.Loaded HA-GST-Rheb was then incubated with compound (final DMSO concentration 1%) for 30 minutes at room temperature. mTORC1, GFP-4E-BP1 substrate (Life Technologies #PV4759), and kinase assay buffer (HEPES pH 7.4, KCl, MgCl2) were added to the Rheb-compound mixture and incubated at room temperature for 20 minutes. ATP was then added, and the kinase reaction proceeded at 30° C. for 45 min before being stopped by the addition of SDS-PAGE loading buffer for Westerns or 10 mM EDTA for the LanthaScreen readout. During the kinase reaction, the final concentration of reagents is as follows: Rheb—30 ng/μL, compound—variable, GTPγS—0.02 mM, EDTA—0.5 mM, MgCl2—1 mM, mTORC1—fixed volume of prep (molarity unknown), GFP-4E-BP1 substrate—15 ng/μL, ATP—0.5 mM. For LanthaScreen analysis (Thermo Fisher #PV4757), the manufacturer's instructions were followed and conditions were optimized for the amount of Rheb and mTORC1. The final concentration of reagents was as follows: 100 nM loaded HA-GST-Rheb, compound (variable), 0.5 mM EDTA, 10 mM MgCl2, 25 mM HEPES pH 7.4, 50 mM KCl, mTORC1 (fixed volume—0.1 μL in 10 μL total volume), 0.4 μM GFP-4E-BP1 substrate, 0.5 mM ATP. Results were read on an EnVision reader (PerkinElmer) using 495ex/520em filters (Life Technologies, #PV00315). (In TR-FRET formats the signal depends on donor and acceptor labels being close together.)
Chain of GTP-binding protein Rheb (Q15382 whole entry): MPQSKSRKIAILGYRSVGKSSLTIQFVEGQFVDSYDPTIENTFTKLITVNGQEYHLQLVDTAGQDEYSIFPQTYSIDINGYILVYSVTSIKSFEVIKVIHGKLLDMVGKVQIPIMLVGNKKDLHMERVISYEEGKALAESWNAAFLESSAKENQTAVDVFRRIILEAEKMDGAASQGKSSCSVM
In the case of `Cc1cc(C(C)(C)C)ccc1Sc1cc(Cl)cc2[nH]c(CO)cc12`, the half-inhibitory concentration (IC50) – broadly, the midpoint of a concentration-inhibition curve – was < 10 µM.

With `CN1CCCN(c2ccc(NC(=O)c3cc4c(-c5cc(Cl)cc(Cl)c5)cc(Cl)cc4[nH]3)cc2F)CC1`, the 50% inhibitory concentration (IC50) is < 10 µM.

`Cc1cc(C(C)(C)C)ccc1Sc1cc(Cl)cc2[nH]c(C(=O)O)cc12`: the IC50 is < 10 µM.

On to `OCc1cc2c(Sc3ccc(Cl)cc3Cl)cc(Cl)cc2[nH]1`, for which the IC50 is < 10 µM.

As for `O=C(O)c1cc2c(Sc3ccc(C(F)(F)F)cc3)cc(Cl)cc2[nH]1`, the concentration for half-maximal inhibition (IC50) was < 10 µM.
